Laboratory results as given in ChEMBL document CHEMBL1158818, “Alkaloids from the sponge Monanchora unguifera” (J Nat Prod, 2005).

What was measured:
Type in all cases: functional, cell-based
[1] = test system: HT-29; test: Cytotoxicity against human HT-29 cells
[2] = test system: DU-145; test: Cytotoxicity against human DU145 cells
[3] = test system: SK-MEL-28; test: Cytotoxicity against human SK-MEL-28 cells
[4] = test system: P388; test: Cytotoxicity against mouse P388 cells
[5] = test system: A549; test: Cytotoxicity against human A549 cells

Measured: IC50

CCCCCCC[C@@H]1C[C@@H]2CCC3=C(C(=O)OCCCCCCC[C@@H]4C[C@@H]5CCC6=C(C(=O)OCCCCNC(=N)N)C(C)N=C(N4)N65)C(C)N=C(N1)N32 (stereo not given in full) [BATZELLADINE J]
> 1 mg/L: all assays above
